Consider 15 compounds from patent US6291432A (Japan Energy Corporation, priority 1996, dated 2001).

Read-outs that look alike come from different tables or passages of the source.

One may read the Ki as a measure of affinity in units of concentration, obtained from inhibition or displacement.

Assay [1] has as its target T1, recombinant HIV-1 protease (Human immunodeficiency virus type 1 group M subtype B, UniProt P04585).
T1 construct: measured using a recombinant HIV-1 protease
Put plainly: HIV protease inhibition activity (enzyme activity inhibition rate). It counts as biochemical. To be noted: 50 nM final concentration of test compound, 60 min at 37° C.; for inhibition at 0.05 µM: read-out: Enzyme activity inhibition rate (%) (addition concentration of 50 nM). The procedure: The protease activity was measured using a recombinant HIV-1 protease (see Biochemistry, 250 (9)-264 (1990)) and a synthesized peptide substrate. The inhibition rate was calculated by determining a peptide fragment generated by cleavage between Tyr-Pro of the synthesized substrate after the reaction of 60 min at 37° C. using a reversed phase HPLC in the presence of the test compounds in various concentrations (see, for example, Japanese Patent Application Laid-open No. 170722/1993).
Examples of the evaluation results of the HIV protease inhibition activity of the tripeptide compound of the present invention by the above-described method is shown in Table 1. […] The concentration of the test compounds in Table 1 represents the final concentration in the reaction mixture.

For assay [2], the target named is T1, recombinant HIV-1 protease. Put plainly: Evaluation of enzyme inhibition constant Ki. It counts as biochemical. The procedure: The synthesized peptide substrate having a sequence of H-Lys-Ala-Arg-Val-Tyr-Phe (4-NO2)-Glu-Ala-Nle-NH2 (SEQ ID NO. 1) was used in this experiment. The enzyme reaction was measured using a reversed phase HPLC by determining the C-terminal peptide fraction produced by cleavage just behind Tyr in the synthesized substrate which is obtained by reacting the following composition for 15 min. at 37° C. and stopping the reaction by the addition of 1N HCl (75 μl).
Composition of reaction mixture
Recombinant HIV-1 protease enzyme solution 10 μl
0.5 mM synthetic substrate aqueous solution 10 μl
DMSO Inhibitor solution 5 μl
0.2 M MES solution 25 μl
(1 M NaCl, 2 mM EDTA-2Na, 2 mM DTT, pH 5.5)
Column: Waters Nova-pak C18 (3.9×75 mm)
Eluent: A; water (0.1% TFA)
B; acetonitrile (0.1% TFA)
Flow rate: 2 ml/min isocratic; 10% B solution
Detection: Fluorescence 305 nm, excitation 275 nm

With `CC1(C)SCN(C(=O)[C@@H](O)[C@H](Cc2ccccc2)NC(=O)[C@H](CC(N)=O)NC(=O)OCc2ccccc2)[C@@H]1C(=O)NCc1ccccc1` [Example 1, (R)-N-benzyl-3-{(2S,3S)-3-[N-(benzyloxycarbonyl)-L-asparaginyl]amino-2-hydroxy-4-phenylbutanoyl}-5,5-dimethyl-1,3-thiazolidine-4-carboxamide], in assay [1], the inhibition at 0.05 µM was found to be 96%. The Ki in assay [2] is 19 pM.

Turning to `CC[C@H](NC(=O)OC)C(=O)N[C@@H](Cc1ccccc1)[C@H](O)C(=O)N1CSC(C)(C)[C@H]1C(=O)NCc1ccccc1C` [Example 28, (R)-N-(2-methylbenzyl)-3-{(2S,3S)-2-hydroxy-3-[(S)-2-(methoxycarbonyl)aminobutanoyl]amino-4-phenylbutanoyl}-5,5-dimethyl-1,3-thiazolidine-4-carboxamide], the inhibition at 0.05 µM in assay [1] was 93.6%. In addition, the Ki in assay [2] came out at 242 pM.

On to `Cc1ccccc1CNC(=O)[C@H]1N(C(=O)[C@@H](O)[C@H](Cc2ccccc2)NC(=O)[C@H](CC(N)=O)NC(=O)c2cc(=O)c3ccccc3o2)CSC1(C)C` [Example 6, (R)-N-(2-methylbenzyl)-3-{(2S,3S)-3-[N-(2-chromonecarbonyl)-L-asparaginyl]amino-2-hydroxy-4-phenylbutanoyl}-5,5-dimethyl-1,3-thiazolidine-4-carboxamide], for which the “Enzyme activity inhibition rate (%) (addition concentration of 50 nM)” value in assay [1] was found to be 98.4%. The Ki in assay [2] (reversible tight-binding inhibitor model, test compound 1-100 nM, 15 min at 37° C., pH 5.5, read-out: Enzyme inhibition constant Ki) stood at 1.7 pM.

Regarding `Cc1ccccc1CNC(=O)[C@H]1N(C(=O)[C@@H](O)[C@H](Cc2ccccc2)NC(=O)[C@H](CC(N)=O)NC(=O)OCc2ccccc2)CSC1(C)C` [Example 3, (R)-N-(2-methylbenzyl)-3-{(2S,3S)-3-[N-(benzyloxycarbonyl)-L-asparaginyl]amino-2-hydroxy-4-phenylbutanoyl}-5,5-dimethyl-1,3-thiazolidine-4-carboxamide], the inhibition at 0.05 µM in assay [1] worked out at 100%. In addition, the Ki in assay [2] was determined as 16 pM.

For the compound `Cc1ccccc1CNC(=O)[C@H]1N(C(=O)[C@@H](O)[C@H](Cc2ccccc2)NC(=O)[C@@H](NC(=O)c2cc3ccccc3o2)C(C)C)CSC1(C)C` [Example 11, (R)-N-(2-methylbenzyl)-3-{(2S,3S)-3-[N-(2-benzofurancarbonyl)-L-valyl]amino-2-hydroxy-4-phenylbutanoyl}-5,5-dimethyl-1,3-thiazolidine-4-carboxamide], in assay [1], the inhibition at 0.05 µM amounted to 97.1%.

Consider `CC[C@H](NC(=O)COc1cccc(N(C)C)c1)C(=O)N[C@@H](Cc1ccccc1)[C@H](O)C(=O)N1CSC(C)(C)[C@H]1C(=O)NCc1ccccc1C` [Example 25, (R)-N-(2-methylbenzyl)-3-{(2S,3S)-2-hydroxy-3-[(S)-2-(3-dimethylaminophenoxyacetyl)aminobutanoyl]amino-4-phenylbutanoyl}-5,5-dimethyl-1-thiazolidine-4-carboxamide], for which the “Enzyme activity inhibition rate (%) (addition concentration of 50 nM)” value in assay [1] was 99.9%.

For the compound `CC[C@H](NC(C)=O)C(=O)N[C@@H](Cc1ccccc1)[C@H](O)C(=O)N1CSC(C)(C)[C@H]1C(=O)NCc1ccccc1C` [Example 34, (R)-N-(2-methylbenzyl)-3-{(2S,3S)-2-hydroxy-3-[(S)-2-acetylaminobutanoyl]amino-4-phenylbutanoyl}-5,5-dimethyl-1,3-thiazolidine-4-carboxamide], the inhibition at 0.05 µM in assay [1] was 88.9%.

Regarding `Cc1ccccc1CNC(=O)[C@H]1N(C(=O)[C@@H](O)[C@H](Cc2ccccc2)NC(=O)[C@H](CC(N)=O)NC(=O)c2cc3ccccc3o2)CSC1(C)C` [Example 7, (R)-N-(2-methylbenzyl)-3-{(2S,3S)-3-[N-(2-benzofurancarbonyl)-L-asparaginyl]amino-2-hydroxy-4-phenylbutanoyl}-5,5-dimethyl-1,3-thiazolidine-4-carboxamide], the inhibition at 0.05 µM in assay [1] was 91.2%. Besides, in assay [2], the Ki stood at 4.8 pM.

`Cc1ccccc1CNC(=O)[C@H]1N(C(=O)[C@@H](O)[C@H](Cc2ccccc2)NC(=O)[C@@H](NC(=O)c2cnc3ccccc3n2)C(C)C)CSC1(C)C` [Example 19, (R)-N-(2-methylbenzyl)-3-{(2S,3S)-3-[N-(2-quinoxalinecarbonyl)-L-valyl]amino-2-hydroxy-4-phenylbutanoyl}-5,5-dimethyl-1,3-thiazolidine-4-carboxamide]: in assay [1], the inhibition at 0.05 µM was 97.3%.

`Cc1ccccc1CNC(=O)[C@H]1N(C(=O)[C@@H](O)[C@H](Cc2ccccc2)NC(=O)[C@@H](NC(=O)c2nc3ccccc3s2)C(C)C)CSC1(C)C` [Example 14, (R)-N-(2-methylbenzyl)-3-{(2S,3S)-3-[N-(2-benzothiazolecarbonyl)-L-valyl]amino-2-hydroxy-4-phenylbutanoyl}-5,5-dimethyl-1,3-thiazolidine-4-carboxamide]: the inhibition at 0.05 µM in assay [1] amounted to 95.8%.

As to `CC(=O)N[C@H](C(=O)N[C@@H](Cc1ccccc1)[C@H](O)C(=O)N1CSC(C)(C)[C@H]1C(=O)NCc1ccccc1C)C(C)C` [Example 33, (R)-N-(2-methylbenzyl)-3-{(2S,3S)-2-hydroxy-3-[(S)-2-acetylamino-3-methylbutanoyl]amino-4-phenylbutanoyl}-5,5-dimethyl-1,3-thiazolidine-4-carboxamide], the inhibition at 0.05 µM in assay [1] amounted to 89.8%.

On to `Cc1ccccc1CNC(=O)[C@H]1N(C(=O)[C@@H](O)[C@H](Cc2ccccc2)NC(=O)[C@@H](NC(=O)COc2cccc(N(C)C)c2)C(C)C)CSC1(C)C` [Example 22, (R)-N-(2-methylbenzyl)-3-{(2S,3S)-2-hydroxy-3-[(S)-2-(3-dimethylaminophenoxyacetyl)amino-3-methylbutanoyl]amino-4-phenylbutanoyl}-5,5-dimethyl-1,3-thi azolidine-4-carboxamide], for which the inhibition at 0.05 µM in assay [1] came out at 97.6%.

Turning to `COC(=O)N[C@@H](CC(N)=O)C(=O)N[C@@H](Cc1ccccc1)[C@H](O)C(=O)N1CSC(C)(C)[C@H]1C(=O)NCc1ccccc1C` [Example 40, (R)-N-(2-methylbenzyl)-3-{(2S,3S)-2-hydroxy-3-[N-(methoxycarbonyl)-L-asparaginyl]amino-4-phenylbutanoyl}-5,5-dimethyl-1,3-thiazolidine-4-carboxamide], the inhibition at 0.05 µM in assay [1] worked out at 94.3%.

For the compound `Cc1ccccc1CNC(=O)[C@H]1N(C(=O)[C@@H](O)[C@H](Cc2ccccc2)NC(=O)[C@@H](NC(=O)OCc2ccccc2)C(C)C)CSC1(C)C` [Example 4, (R)-N-(2-methylbenzyl)-3-{(2S,3S)-3-[N-(benzyloxycarbonyl)-L-valyl]amino-2-hydroxy-4-phenylbutanoyl}-5,5-dimethyl-1,3-thiazolidine-4-carboxamide], the inhibition at 0.05 µM in assay [1] was determined as 95.3%.

On to `CC(C)(C)NC(=O)[C@H]1N(C(=O)[C@@H](O)[C@H](Cc2ccccc2)NC(=O)[C@H](CC(N)=O)NC(=O)OCc2ccccc2)CSC1(C)C` [reference compound], for which the Ki in assay [2] stood at 212 pM.
